Among the data in US10590078B2, “Sodium channel blockers” (Daewoong Pharmaceutical Co., Ltd., priority 2015, dated 2020) are IC50 values, retold here.

The target of this assay is human sodium ion channel 1.7 (hNav1.7) (Homo sapiens, UniProt Q15858). The experiment in a line: Blocking effect against sodium ion channel Nav1.7, IonFlux16 auto patch clamp in hNav1.7 HEK293 cells. The format is cell-based. To be noted: hNav1.7 HEK293 cells; inhibition of peak current after 50 seconds treatment; eight concentrations; read-out: IC50.
Chain of human sodium ion channel 1.7 (hNav1.7) (Q15858 whole entry): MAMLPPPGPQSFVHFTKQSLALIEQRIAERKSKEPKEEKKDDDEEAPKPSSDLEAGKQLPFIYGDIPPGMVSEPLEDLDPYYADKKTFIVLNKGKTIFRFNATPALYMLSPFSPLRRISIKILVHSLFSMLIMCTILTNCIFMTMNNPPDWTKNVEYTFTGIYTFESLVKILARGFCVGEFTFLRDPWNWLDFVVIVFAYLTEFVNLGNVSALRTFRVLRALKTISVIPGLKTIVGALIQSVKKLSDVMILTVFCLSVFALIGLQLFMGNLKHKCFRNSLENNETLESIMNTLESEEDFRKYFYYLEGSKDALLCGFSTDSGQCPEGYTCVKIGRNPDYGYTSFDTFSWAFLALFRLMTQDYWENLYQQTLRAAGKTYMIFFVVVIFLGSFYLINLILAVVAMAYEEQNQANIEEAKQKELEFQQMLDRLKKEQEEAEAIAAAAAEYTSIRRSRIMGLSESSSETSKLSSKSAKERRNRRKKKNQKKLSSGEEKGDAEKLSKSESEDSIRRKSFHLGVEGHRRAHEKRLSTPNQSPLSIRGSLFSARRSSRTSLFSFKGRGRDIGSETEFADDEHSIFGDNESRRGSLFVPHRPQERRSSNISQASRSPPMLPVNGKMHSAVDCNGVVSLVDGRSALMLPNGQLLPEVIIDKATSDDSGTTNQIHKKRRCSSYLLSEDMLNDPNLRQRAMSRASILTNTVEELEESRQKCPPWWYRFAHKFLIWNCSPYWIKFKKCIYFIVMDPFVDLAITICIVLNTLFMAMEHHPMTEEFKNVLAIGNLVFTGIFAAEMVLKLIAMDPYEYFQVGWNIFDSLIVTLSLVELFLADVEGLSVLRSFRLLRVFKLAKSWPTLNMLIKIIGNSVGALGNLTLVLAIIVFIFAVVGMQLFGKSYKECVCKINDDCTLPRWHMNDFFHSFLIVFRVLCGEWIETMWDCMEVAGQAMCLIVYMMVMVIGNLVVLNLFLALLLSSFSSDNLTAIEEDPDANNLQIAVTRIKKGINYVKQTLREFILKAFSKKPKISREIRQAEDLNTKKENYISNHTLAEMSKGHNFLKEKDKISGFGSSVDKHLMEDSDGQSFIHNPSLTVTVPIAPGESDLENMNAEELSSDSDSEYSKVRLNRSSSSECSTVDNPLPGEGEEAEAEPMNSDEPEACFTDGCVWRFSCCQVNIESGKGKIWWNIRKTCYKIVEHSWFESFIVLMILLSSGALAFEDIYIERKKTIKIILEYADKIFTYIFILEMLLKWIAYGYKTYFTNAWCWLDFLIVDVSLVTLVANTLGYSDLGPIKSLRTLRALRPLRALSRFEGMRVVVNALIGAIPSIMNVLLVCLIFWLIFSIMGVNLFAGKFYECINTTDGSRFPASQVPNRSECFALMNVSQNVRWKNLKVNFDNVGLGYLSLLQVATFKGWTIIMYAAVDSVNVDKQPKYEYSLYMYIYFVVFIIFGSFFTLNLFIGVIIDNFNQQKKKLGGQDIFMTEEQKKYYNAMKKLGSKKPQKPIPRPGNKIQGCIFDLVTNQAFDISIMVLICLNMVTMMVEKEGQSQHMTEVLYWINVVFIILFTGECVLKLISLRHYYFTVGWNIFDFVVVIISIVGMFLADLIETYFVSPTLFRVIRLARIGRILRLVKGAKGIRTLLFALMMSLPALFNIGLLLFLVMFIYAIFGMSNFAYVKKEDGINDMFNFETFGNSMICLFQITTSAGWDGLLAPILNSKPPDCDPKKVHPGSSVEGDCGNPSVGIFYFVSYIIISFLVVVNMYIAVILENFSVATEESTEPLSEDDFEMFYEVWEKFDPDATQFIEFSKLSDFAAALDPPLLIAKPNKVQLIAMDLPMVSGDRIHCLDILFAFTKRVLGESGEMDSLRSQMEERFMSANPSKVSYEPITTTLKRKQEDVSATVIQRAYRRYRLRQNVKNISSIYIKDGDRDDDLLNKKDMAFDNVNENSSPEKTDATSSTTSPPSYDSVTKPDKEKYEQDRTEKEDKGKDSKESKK

`CS(=O)(=O)NC(=O)c1cc(Cl)c(-n2nc(-c3ccncc3)c3cc(Cl)ccc32)cc1F` [Example 49, 5-chloro-4-(5-chloro-3-(pyridin-4-yl)-1H-indazol-1-yl)-2-fluoro-N-(methylsulfonyl)benzamide]: the IC50 amounted to 2220 nM.
For `CS(=O)(=O)N(Cc1ccc(F)cc1)C(=O)c1cc(Cl)c(-n2nc(Cl)c3cc(O)ccc32)cc1F` [Example 141, 5-chloro-4-(3-chloro-5-hydroxy-1H-indazol-1-yl)-2-fluoro-N-(4-fluorobenzyl)-N-(methylsulfonyl)benzamide] the value was above 10000 nM; for `COc1ccc2c(c1)c(Cl)cn2-c1cc(F)c(C(=O)NS(C)(=O)=O)cc1Cl` [Example 268, 5-chloro-4-(3-chloro-5-methoxy-1H-indol-1-yl)-2-fluoro-N-(methylsulfonyl)benzamide], 608 nM.
For `COc1ccc(-c2nn(-c3cc(F)c(C(=O)NS(C)(=O)=O)cc3Cl)c3ccc(F)cc23)cc1` [Example 155, 5-chloro-2-fluoro-4-(5-fluoro-3-(4-methoxyphenyl)-1H-indazol-1-yl)-N-(methylsulfonyl)benzamide] the value was 110 nM; for `CS(=O)(=O)NC(=O)c1ccc(-n2nc(-c3cccnc3)c3cc(F)ccc32)c(C#N)c1` [Example 167, 3-cyano-4-(5-fluoro-3-(pyridin-3-yl)-1H-indazol-1-yl)-N-(methylsulfonyl)benzamide], above 10000 nM; for `CS(=O)(=O)NC(=O)c1cc(Cl)c(-n2ncc3c(Cl)c(F)ccc32)cc1F` [Example 15, 5-chloro-4-(4-chloro-5-fluoro-1H-indazol-1-yl)-2-fluoro-N-(methylsulfonyl)benzamide], 3090 nM.
For `CS(=O)(=O)NC(=O)c1cc(Cl)c(-n2nc(-c3ccc(F)cc3)c3cc(F)ccc32)cc1F` [Example 153, 5-chloro-2-fluoro-4-(5-fluoro-3-(4-fluorophenyl)-1H-indazol-1-yl)-N-(methylsulfonyl)benzamide] the value was 200 nM; for `CS(=O)(=O)NC(=O)c1ccc(-n2nc(Cl)c3cc(O)ccc32)cc1` [Example 12, 4-(3-chloro-5-hydroxy-1H-indazol-1-yl)-N-(methylsulfonyl)benzamide], above 10000 nM.
On to `CS(=O)(=O)NC(=O)c1cc(Cl)c(-n2cc(-c3cccc(C(F)(F)F)c3)c3cccnc32)cc1F` [Example 217, 5-chloro-2-fluoro-N-(methylsulfonyl)-4-(3-(3-(trifluoromethyl)phenyl)-1H-pyrrolo[2,3-b]pyridin-1-yl)benzamide], for which the IC50 came to 530 nM.
For `CS(=O)(=O)NC(=O)c1cc(Cl)c(-n2cc(Cl)c3cc(-c4ccc(C(F)(F)F)cc4)cnc32)cc1F` [Example 261, 5-chloro-4-(3-chloro-5-(4-(trifluoromethyl)phenyl)-1H-pyrrolo[2,3-b]pyridin-1-yl)-2-fluoro-N-(methylsulfonyl)benzamide] the value was 180 nM; for `CS(=O)(=O)NC(=O)c1ccc(-n2nc(-c3ccc(C(F)(F)F)cc3)c3cc(Cl)ccc32)c(C#N)c1` [Example 99, 4-(5-chloro-3-(4-(trifluoromethyl)phenyl)-1H-indazol-1-yl)-3-cyano-N-(methylsulfonyl)benzamide], 1340 nM; for `CS(=O)(=O)NC(=O)c1cc(Cl)c(-n2nc(-c3ccc(F)cc3)c3cc(Cl)ccc32)cc1F` [Example 55, 5-chloro-4-(5-chloro-3-(4-fluorophenyl)-1H-indazol-1-yl)-2-fluoro-N-(methylsulfonyl)benzamide], 51 nM.
Take `CS(=O)(=O)NC(=O)c1cc(Cl)c(-n2cc(-c3ccccc3F)c3cccnc32)cc1F` [Example 213, 5-chloro-2-fluoro-4-(3-(2-fluorophenyl)-1H-pyrrolo[2,3-b]pyridin-1-yl)-N-(methylsulfonyl)benzamide]: the IC50 worked out at 720 nM.
With `CS(=O)(=O)NC(=O)c1cc(Cl)c(-n2nc(-c3cn[nH]c3)c3cc(Cl)ccc32)cc1F` [Example 89, 5-chloro-4-(5-chloro-3-(1H-pyrazol-4-yl)-1H-indazol-1-yl)-2-fluoro-N-(methylsulfonyl)benzamide], the IC50 was above 10000 nM.
In the case of `CS(=O)(=O)NC(=O)c1ccc(-n2nc(-c3ccc(Cl)cc3)c3cc(Cl)ccc32)c(F)c1` [Example 126, 4-(5-chloro-3-(4-chlorophenyl)-1H-indazol-1-yl)-3-fluoro-N-(methylsulfonyl)benzamide], the IC50 was found to be 990 nM.
For `NC(=O)NNC(=O)c1cc(Cl)c(-n2nc(-c3ccc(Cl)cc3F)c3cc(Cl)ccc32)cc1F` [Example 290, 2-(5-chloro-4-(5-chloro-3-(4-chloro-2-fluorophenyl)-1H-indazol-1-yl)-2-fluorobenzoyl)hydrazine-1-carboxamide] the value was 11200 nM; for `Cc1cccc(-c2ccc3c(c2)c(Cl)nn3-c2cc(F)c(C(=O)NS(C)(=O)=O)cc2Cl)c1` [Example 233, 5-chloro-4-(3-chloro-5-(m-tolyl)-1H-indazol-1-yl)-2-fluoro-N-(methylsulfonyl)benzamide], 68 nM.
For `COc1ncccc1-c1nn(-c2ccc(C(=O)NS(C)(=O)=O)cc2C#N)c2ccc(Cl)cc12` [Example 106, 4-(5-chloro-3-(2-methoxypyridin-3-yl)-1H-indazol-1-yl)-3-cyano-N-(methylsulfonyl)benzamide] the value was 6020 nM; for `Cc1ccc(-c2nn(-c3cc(F)c(C(=O)NS(C)(=O)=O)cc3Cl)c3ccc(F)cc23)cc1` [Example 156, 5-chloro-2-fluoro-4-(5-fluoro-3-(p-tolyl)-1H-indazol-1-yl)-N-(methylsulfonyl)benzamide], 100 nM; for `CS(=O)(=O)NC(=O)c1cc(Cl)c(-n2nc(Cl)c3cc(O)ccc32)cc1F` [Example 16, 5-chloro-4-(3-chloro-5-hydroxy-1H-indazol-1-yl)-2-fluoro-N-(methylsulfonyl)benzamide], above 10000 nM.
For `CS(=O)(=O)NC(=O)c1cc(Cl)c(-n2nc(Cl)c3cc(-c4cccc(F)c4)ccc32)cc1F` [Example 235, 5-chloro-4-(3-chloro-5-(3-fluorophenyl)-1H-indazol-1-yl)-2-fluoro-N-(methylsulfonyl)benzamide] the value was 89 nM.
`Cn1nccc1-c1nn(-c2cc(F)c(S(=O)(=O)Nc3ncns3)cc2Cl)c2ccc(Cl)cc12` [Example 283, 5-chloro-4-(5-chloro-3-(1-methyl-1H-pyrazol-5-yl)-1H-indazol-1-yl)-2-fluoro-N-(1,2,4-thiadiazol-5-yl)benzenesulfonamide]: the IC50 is above 3000 nM.
Then `O=C(Nc1nccs1)c1cc(Cl)c(-n2nc(-c3ccc(Cl)cc3F)c3cc(Cl)ccc32)cc1F` [Example 294, 5-chloro-4-(5-chloro-3-(4-chloro-2-fluorophenyl)-1H-indazol-1-yl)-2-fluoro-N-(thiazol-2-yl)benzamide], with above 10000 nM; and `CC(C)Cc1ccc2c(c1)c(-c1ccccc1)nn2-c1cc(F)c(C(=O)NS(C)(=O)=O)cc1Cl` [Example 84, 5-chloro-2-fluoro-4-(5-isobutyl-3-phenyl-1H-indazol-1-yl)-N-(methylsulfonyl)benzamide], with 110 nM.
Consider `CS(=O)(=O)NC(=O)c1cc(Cl)c(-n2nc(-c3cccc(C#N)c3)c3ccccc32)cc1F` [Example 181, 5-chloro-4-(3-(3-cyanophenyl)-1H-indazol-1-yl)-2-fluoro-N-(methylsulfonyl)benzamide], for which the concentration for half-maximal inhibition (IC50) turned out to be 837 nM.
